For the assay, the target named is T1, hERG1a (human ether-à-go-go-related gene type 1, Kv11.1) (Homo sapiens, UniProt Q12809).
T1 construct: gene KCNH2; EC50 on split hERG1a (residues 1–545 VSD module + residues 546–1,159 pore module, coexpressed)
Kind of assay: two-electrode voltage clamp of channels expressed in Xenopus oocytes (slowing of deactivation). The assay is classed as cell-based. (In general: Two-electrode voltage clamp is typically applied to oocytes expressing channels or transporters.)

Consider one compound from PMC9996038, “Binding of RPR260243 at the intracellular side of the hERG1 channel pore domain slows closure of the helix bundle crossing gate” (Frontiers in Molecular Biosciences, 2023).

T1 sequence (Q12809 546-1159): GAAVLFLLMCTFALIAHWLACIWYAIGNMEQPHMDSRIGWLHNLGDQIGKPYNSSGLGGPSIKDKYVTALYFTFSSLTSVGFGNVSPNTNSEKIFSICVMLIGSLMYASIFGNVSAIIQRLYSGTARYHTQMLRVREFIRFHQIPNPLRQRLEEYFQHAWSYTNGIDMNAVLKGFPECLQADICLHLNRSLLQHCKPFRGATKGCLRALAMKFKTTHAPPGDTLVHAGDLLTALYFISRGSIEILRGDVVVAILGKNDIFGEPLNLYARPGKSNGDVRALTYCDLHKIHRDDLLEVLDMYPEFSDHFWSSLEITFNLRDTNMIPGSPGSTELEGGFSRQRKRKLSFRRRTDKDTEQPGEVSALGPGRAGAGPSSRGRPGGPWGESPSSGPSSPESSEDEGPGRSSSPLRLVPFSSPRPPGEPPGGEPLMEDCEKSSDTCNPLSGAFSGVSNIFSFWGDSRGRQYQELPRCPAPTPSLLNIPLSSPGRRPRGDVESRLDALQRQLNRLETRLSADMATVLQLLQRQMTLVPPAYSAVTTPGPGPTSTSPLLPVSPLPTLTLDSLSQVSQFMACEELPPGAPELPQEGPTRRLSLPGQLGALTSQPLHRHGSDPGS
T1 sequence (Q12809 1-545 partner): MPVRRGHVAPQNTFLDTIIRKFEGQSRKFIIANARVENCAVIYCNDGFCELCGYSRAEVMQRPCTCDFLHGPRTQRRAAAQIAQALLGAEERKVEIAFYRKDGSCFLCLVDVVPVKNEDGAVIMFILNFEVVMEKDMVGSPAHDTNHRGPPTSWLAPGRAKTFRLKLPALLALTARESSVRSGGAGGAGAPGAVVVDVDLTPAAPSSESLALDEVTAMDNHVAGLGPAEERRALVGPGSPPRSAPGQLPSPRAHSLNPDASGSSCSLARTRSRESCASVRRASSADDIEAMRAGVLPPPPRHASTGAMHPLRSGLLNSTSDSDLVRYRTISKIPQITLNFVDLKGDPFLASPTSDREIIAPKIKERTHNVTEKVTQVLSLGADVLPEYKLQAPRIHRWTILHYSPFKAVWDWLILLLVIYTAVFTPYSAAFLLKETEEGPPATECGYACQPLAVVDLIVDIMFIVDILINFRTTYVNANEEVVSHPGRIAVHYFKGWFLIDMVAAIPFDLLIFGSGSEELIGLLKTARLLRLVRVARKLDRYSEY

One may read the EC50 as the concentration giving half of the maximal effect. Higher therefore signals weaker potency. The compound `COc1ccc2nccc(C(=O)CC[C@@H]3CCN(CC#Cc4cc(F)cc(F)c4F)C[C@@H]3C(=O)O)c2c1` [RPR, (3R,4R)-4-[3-(6-methoxyquinolin-4-yl)-3-oxo-propyl]-1-[3-(2,3,5-trifluorophenyl)-prop-2-ynyl]-piperidine-3-carboxylic acid] gave an EC50 of 7.9 ± 1 µM.
